# Measured values reported in publication PMC6272295, “In Vitro Neuroprotective Activities of Compounds from Angelica shikokiana Makino” (Molecules, 2015).
# Read-outs that look alike come from different tables or passages of the source.
# Legend:
# [1] = molecular target: T1, AChE from Electrophorus electricus (Electrophorus electricus, UniProt O42275); test: biochemical; settings: for IC50: Ellman's method, read-out: IC50 in the AChEI assay
# T1 construct: purchased Sigma (St. Louis, MO, USA)
# Protocol: AChEI activity was measured using Ellman’s method. AChE hydrolyzes the substrate ACTI into acetate and thiocholine. In a neutral and alkaline medium; thiocholine reacts with DTNB to give yellow colored 2-nitro-5-thiobenzoate, which can be detected spectrophotometrically at 405 nm. Briefly, in a 96-well plate, 25 µL of 15 mM ACTI, 125 µL of 3 mM DTNB in buffer B (50 mM Tris HCl, pH = 8, 0.1 M NaCl, 0.02 M MgCl2·6H2O), 50 µL of buffer A (50 mM Tris-HCl, PH 8, 0.1% BSA) and 25 µL of tested sample (dissolved in 25% DMSO) were mixed, and the absorbance was measured using a microplate reader (Biotek, Winooski, VT, USA) at 405 nm every 16 s ten times. Then, 25 µL of AChE (0.25 U/mL in buffer A) was added and the absorbance was measured ten times every 16 s. A solution of 25% DMSO was used as a negative control. Absorbance was plotted against time and enzyme activity was calculated from the slope of the line so obtained and expressed as a percentage compared to an assay using a buffer without any inhibitor. Fractions were tested at 400 µg/mL. To avoid any increase in absorbance due to the color of the compounds or spontaneous hydrolysis of the substrate, the absorbance before addition of the enzyme was subtracted from the absorbance after adding the enzyme.
# (§1) IC50 values of isolated compounds in AChEI and scavenging of hydroxyl radical assays were calculated using Probit Analysis (SPSS Version 16.0 for Windows, SPSS Inc., Chicago, IL, USA) for five different concentrations in three independent experiments. Cell viability was expressed as a percentage of MTT reduction, assuming that the viability of cells treated with 1% DMSO as a negative control was 100%. Figures were built in Microsoft Excel 2010. All values are the mean ± SD of three independent experiments. Data were analyzed for statistical significance using one-way ANOVA, followed by Dunnet’s test as a post-hoc test with GraphPad Prism 5.0 software for Windows (Inc., San Diego, CA, USA).
# [2] = system: intracellular ROS in Neuro-2A cells; test: Scavenging of intracellular reactive oxygen species (Bes-H2O2-AC, DFF fluorescence); format: cell-based, Mouse; settings: for decrease of DFF fluorescence intensity (intracellular ROS): only at the higher concentration of 100 µM, H2O2 600 µM 30 min; for Intracellular ROS Scavenging: summary Table 4; on Intracellular ROS Scavenging: key: +: Weak activity; ++: Strong activity
# Protocol: (§2) Neuro-2A cell line was maintained in Eagle’s Minimum Essential medium supplemented with 10% fetal bovine serum, 1% of 100× antibiotic—antimitotic agents (containing penicillin and streptomycin) in a humid atmosphere of 5% (v/v) CO2 and 95% (v/v) air at 37 °C. Neuro-2A cells were plated in 96-well cell culture plates at a density of 3 × 10^4 cells/well for H2O2 and intracellular ROS assays and 2.5 × 10^3 cells/well for the Aβ25-35-assay.
# This assay was performed as previously described with some modifications. Briefly, Neuro-2A cells were seeded in 96-well Clear Fluorescence Black Plate (number 655090, Greiner Bio-one, Tokyo, Japan). Cells were treated with three different concentrations (25, 50, 100 µM) of the samples. After 2 h incubation, cells were subjected to oxidative stress using 600 µM of H2O2 for 30 min. The nucleus was stained by Hoechst 33342 (Dojindo, Kumamoto, Japan), and the amount of difluorofluorescein (DFF) released from the reaction of H2O2 and BES-H2O2-Ac was taken as an indication of the amount of intracellular H2O2 and ROS. Images of each well were acquired using an IN Cell Analyzer 1000 (GE Healthcare, Buckinghamshire, UK) using 360-nm (Hoechst 33342) and 480-nm (BES-H2O2-Ac) excitation filters and monitored through 460-nm and 535-nm emission filters, respectively. Developer software was used to analyze the images of Hoechst 33342 and BES-H2O2-Ac staining, and the resulting data were then applied to Spotfire Decision Site Client 8.2 software for visualizing the results.
# [3] = Scavenging of hydroxyl radical, 2-deoxyribose degradation assay; on Hydroxyl Radical Scavenging (grade): key: +: Weak activity; ++: Strong activity
# Protocol: The inhibitory effect of bioactive compounds on deoxyribose degradation was determined by measuring the competition between deoxyribose and bioactive compounds for the hydroxyl radicals (^.OH) generated from the Fe^3+/ascorbate/EDTA/H2O2 system (referred to non-site-specific assay; the major activity measured is ^.OH scavenging) or an Fe^3+/ascorbate/H2O2 system (referred to as a site-specific assay; major activity measured is metal chelation). Both assays depend on the formation of a highly reactive hydroxyl radical, OH, by the interaction of iron ions with H2O2 through Fenton’s reaction. […] This assay was performed as previously described. Different concentrations of tested compounds were dissolved in 400 µL phosphate buffer (0.2 M, pH 7.4). Then, 50 µL of deoxyribose (60 mM), 50 µL of Na2EDTA (2 mM), 50 µL of FeCl3 (3.2 mM), 50 µL of H2O2 (60 mM) and 50 µL of ascorbic acid (2 mM) were added, and the total volume of the reaction mixture was adjusted to 1 mL with buffer. After water-bath incubation at 50 °C for 25 min, the reaction was terminated by 250 µL of trichloroacetic acid (10%, w/w). […] For site-specific hydroxyl-radical-scavenging activity, the reaction mixture was similar to the above method, except that EDTA was replaced by an equivalent volume of buffer.
# as §1, with “Figures were built in Microsoft Excel 2010.” left out
# neuro-2A cells = test: Protection against Aβ25-35-induced neurotoxicity (MTT); format: cell-based, Mouse; settings: for neuroprotection against Aβ25-35 (in words): at the highest concentration (100 µM); for Protection against Aβ25-35: summary Table 4; on Protection against Aβ25-35: key: +: Weak activity; ++: Strong activity
# Protocol: as §2
# Cell viability was determined by MTT reduction assay. Briefly, after treatment with isolated compounds, the media was replaced by fresh one after washing the cells with 100 µL PBS and 20 µL of MTT (5 mg/mL) was added to each well. After 4 h incubation at 37 °C, the state of cells was checked under microscope to confirm either cytotoxicity in H2O2 and Aβ25-35 wells or protection in positive controls and isolated compounds ones. The supernatants were aspirated carefully, and 150 µL of DMSO was added to each well to dissolve the dark blue formazan crystals. The absorbance was measured using a microplate reader at 570 nm.
# Similarly, the concentration of Aβ25-35 that decreased cell viability to about 50% was determined. […] So, the cells were incubated with different concentrations of the isolated compounds (6.25, 12.5, 25, 50 and 100 µM) and EGCG as a positive control for 3 h followed by Aβ25-35 treatment for 72 h.
# [4] = Fe3+/ascorbate/EDTA/H2O2 system, read-out: IC50 hydroxyl radical scavenging, Non Site-Specific
# [5] = Fe3+/ascorbate/H2O2 system without EDTA, read-out: IC50 hydroxyl radical scavenging, Site-Specific
# [6] = summary Table 4 (values of the non site-specific assay), read-out: Hydroxyl Radical Scavenging/IC50
# T1 sequence (O42275 24-633): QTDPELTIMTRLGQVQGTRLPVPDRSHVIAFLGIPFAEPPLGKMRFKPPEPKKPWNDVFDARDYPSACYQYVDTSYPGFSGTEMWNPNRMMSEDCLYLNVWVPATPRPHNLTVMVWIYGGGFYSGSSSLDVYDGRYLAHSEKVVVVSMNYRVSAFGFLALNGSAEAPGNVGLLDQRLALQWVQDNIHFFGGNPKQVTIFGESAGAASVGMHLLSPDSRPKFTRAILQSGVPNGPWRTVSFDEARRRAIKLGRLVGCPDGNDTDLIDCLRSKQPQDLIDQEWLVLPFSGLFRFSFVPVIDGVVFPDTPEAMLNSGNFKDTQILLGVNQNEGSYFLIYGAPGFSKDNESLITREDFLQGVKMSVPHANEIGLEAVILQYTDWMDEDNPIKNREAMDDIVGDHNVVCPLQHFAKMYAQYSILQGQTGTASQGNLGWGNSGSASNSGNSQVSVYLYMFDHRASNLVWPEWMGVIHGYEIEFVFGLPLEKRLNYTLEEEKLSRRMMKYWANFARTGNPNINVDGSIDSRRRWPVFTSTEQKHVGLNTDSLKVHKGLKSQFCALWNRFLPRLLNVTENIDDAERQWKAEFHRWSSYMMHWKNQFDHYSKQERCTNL
Structure (SMILES),inhibition at 250 µM ([1]; at 250 µM) [%],decrease of DFF fluorescence intensity (intracellular ROS) [2],Intracellular ROS Scavenging [2],"IC50 [3, 4] [µM]","IC50 [3, 5] [µM]","IC50 [3, 6] [µM]",neuroprotection against Aβ25-35 (in words) (neuro-2A cells),Protection against Aβ25-35 (neuro-2A cells),IC50 [1] [µM],"% Inhibition of deoxyribose degradation, Non Site-Specific ([3]; at 300 µM (maximum solubility in phosphate buffer)) [%]",Hydroxyl Radical Scavenging (grade) ([3]; summary Table 4)
"O=c1c(O)c(-c2ccc(O)cc2)oc2cc(O)cc(O)c12 [Kaempferol (8), kaempferol]",30,decrease the fluorescence intensity,+,720 ± 7.9,901 ± 17.9,720 ± 7.9,significant neuroprotection (p < 0.05),+,,,
"CC(=O)OC1c2c(ccc3ccc(=O)oc23)OC(C)(C)C1OC(=O)C(C)(O)C(C)O (stereo not drawn) [Hyuganin E (6), hyuganin E]",,decrease the fluorescence intensity,+,,,,,++,286.5 ± 2.1,37.5 ± 3.5,+
"O=c1c(OC2OC(CO)C(O)C(O)C2O)c(-c2ccc(O)cc2)oc2cc(O)cc(O)c12 (stereo not drawn) [Kaempferol-3-O-glucoside (13), kaempferol-3-O-glucoside]",,,+,1150 ± 6.7,1300 ± 24.3,1150 ± 6.7,significant neuroprotection (p < 0.05),+,80.4 ± 5.1,,
